Test system: not listed separately
Assay: Acute toxicity in the hens fertile egg screening test (HEST).
Design: species or system Gallus gallus
Conditions: chicken

SMILES	LD50
COc1c2c(c(O)c3c1C(=O)c1c(cc(O)c(C)c1O)C3=O)-c1c(cc(/C=N/NC(=S)NC3CCCCC3)c(C(=O)O)c1O)CC2 [MHL CYCLOHEXYLTHIOSEMICARBAZONE]	> 50 mg/kg

Target: T1, Steryl-sulfatase (Homo sapiens, UniProt P08842)
T1 sequence (P08842 whole entry): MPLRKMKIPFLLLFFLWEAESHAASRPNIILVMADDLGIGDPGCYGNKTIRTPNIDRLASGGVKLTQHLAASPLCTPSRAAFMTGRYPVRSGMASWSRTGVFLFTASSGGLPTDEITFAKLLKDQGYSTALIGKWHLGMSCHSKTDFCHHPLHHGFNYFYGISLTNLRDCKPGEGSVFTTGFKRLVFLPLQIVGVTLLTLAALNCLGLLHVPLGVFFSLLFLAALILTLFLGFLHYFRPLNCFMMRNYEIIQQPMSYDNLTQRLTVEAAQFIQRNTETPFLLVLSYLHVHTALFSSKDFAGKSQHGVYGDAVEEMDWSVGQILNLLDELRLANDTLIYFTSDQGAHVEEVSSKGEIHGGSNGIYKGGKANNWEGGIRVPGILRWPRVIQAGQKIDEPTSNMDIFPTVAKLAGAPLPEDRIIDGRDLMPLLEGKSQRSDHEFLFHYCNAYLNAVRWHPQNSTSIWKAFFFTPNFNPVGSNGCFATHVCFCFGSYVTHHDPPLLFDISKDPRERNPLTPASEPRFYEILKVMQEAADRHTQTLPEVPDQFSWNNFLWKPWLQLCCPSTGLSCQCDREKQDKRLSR
Assay: Inhibitory activity againist Estrone sulfatase from MCF-7 cells ([…])
Type: cell-based, MCF7
Conditions: not given

SMILES	IC50
COc1c2c(c(O)c3c1C(=O)c1c(cc(O)c(C)c1O)C3=O)-c1c(cc(/C=N/N=C(\S)NN3CCCCC3)c(C(=O)O)c1O)CC2	6 µM
COc1c2c(c(O)c3c1C(=O)c1c(cc(O)c(C)c1O)C3=O)-c1c(cc(/C=N/N=C(\S)N(C)C3CCCCC3)c(C(=O)O)c1O)CC2	1.4 µM
COc1c2c(c(O)c3c1C(=O)c1c(cc(O)c(C)c1O)C3=O)-c1c(cc(/C=N/NC(=O)Oc3ccccc3)c(C(=O)O)c1O)CC2	> 100 µM
CCCCCC/N=C(\S)N/N=C/c1cc2c(c(O)c1C(=O)O)-c1c(O)c3c(c(OC)c1CC2)C(=O)c1c(cc(O)c(C)c1O)C3=O	8 µM
COc1c2c(c(O)c3c1C(=O)c1c(cc(O)c(C)c1O)C3=O)-c1c(cc(/C=N/N=C(\S)N3CCCCC3)c(C(=O)O)c1O)CC2	8 µM
CCCCCCC/N=C(\S)N/N=C/c1cc2c(c(O)c1C(=O)O)-c1c(O)c3c(c(OC)c1CC2)C(=O)c1c(cc(O)c(C)c1O)C3=O	9 µM
COc1c2c(c(O)c3c1C(=O)c1c(cc(O)c(C)c1O)C3=O)-c1c(cc(/C=N/N=C(\S)NC(C)(C)C)c(C(=O)O)c1O)CC2	25 µM
COc1c2c(c(O)c3c1C(=O)c1c(cc(O)c(C)c1O)C3=O)-c1c(cc(/C=N/N=C(\S)Oc3ccccc3)c(C(=O)O)c1O)CC2	> 100 µM
COc1c2c(c(O)c3c1C(=O)c1c(cc(O)c(C)c1O)C3=O)-c1c(cc(/C=N/N=C(\S)NC3CCC(C)CC3)c(C(=O)O)c1O)CC2 (centres undefined)	4 µM
COc1c2c(c(O)c3c1C(=O)c1c(cc(O)c(C)c1O)C3=O)-c1c(cc(/C=N/N=C(\S)NC3CCCCCC3)c(C(=O)O)c1O)CC2	1.8 µM
CCCC/N=C(\S)N/N=C/c1cc2c(c(O)c1C(=O)O)-c1c(O)c3c(c(OC)c1CC2)C(=O)c1c(cc(O)c(C)c1O)C3=O	6 µM
COc1c2c(c(O)c3c1C(=O)c1c(cc(O)c(C)c1O)C3=O)-c1c(cc(/C=N/N=C(/N)S)c(C(=O)O)c1O)CC2	> 100 µM
CC/N=C(\S)N/N=C/c1cc2c(c(O)c1C(=O)O)-c1c(O)c3c(c(OC)c1CC2)C(=O)c1c(cc(O)c(C)c1O)C3=O	16 µM
COc1c2c(c(O)c3c1C(=O)c1c(cc(O)c(C)c1O)C3=O)-c1c(cc(/C=N/NC(=O)Nc3ccccc3)c(C(=O)O)c1O)CC2	> 100 µM
COc1c2c(c(O)c3c1C(=O)c1c(cc(O)c(C)c1O)C3=O)-c1c(cc(/C=N/N=C(\S)NCC(C)C)c(C(=O)O)c1O)CC2	11 µM
COc1c2c(c(O)c3c1C(=O)c1c(cc(O)c(C)c1O)C3=O)-c1c(cc(/C=N/N=C(\S)Nc3ccccc3)c(C(=O)O)c1O)CC2	4.8 µM
CCCCC/N=C(\S)N/N=C/c1cc2c(c(O)c1C(=O)O)-c1c(O)c3c(c(OC)c1CC2)C(=O)c1c(cc(O)c(C)c1O)C3=O	13 µM

SMILES	IC50
COc1c2c(c(O)c3c1C(=O)c1c(cc(O)c(C)c1O)C3=O)-c1c(cc(/C=N/N=C(\S)NC(C)C)c(C(=O)O)c1O)CC2	24 µM
COc1c2c(c(O)c3c1C(=O)c1c(cc(O)c(C)c1O)C3=O)-c1c(cc(/C=N/NC(=O)NC3CCCCC3)c(C(=O)O)c1O)CC2	7 µM
COc1c2c(c(O)c3c1C(=O)c1c(cc(O)c(C)c1O)C3=O)-c1c(cc(/C=N/N=C(\S)Nc3ccc(Cl)cc3)c(C(=O)O)c1O)CC2	> 100 µM
CCCCCCCCCCCC/N=C(\S)N/N=C/c1cc2c(c(O)c1C(=O)O)-c1c(O)c3c(c(OC)c1CC2)C(=O)c1c(cc(O)c(C)c1O)C3=O	50 µM
COc1c2c(c(O)c3c1C(=O)c1c(cc(O)c(C)c1O)C3=O)-c1c(cc(/C=N/N=C(\S)Nc3ccc(C)cc3)c(C(=O)O)c1O)CC2	12 µM
COc1c2c(c(O)c3c1C(=O)c1c(cc(O)c(C)c1O)C3=O)-c1c(cc3c(c1O)C(=O)OC3O)CC2 (centres undefined)	41 µM
Cc1cc(=O)oc2cc(OS(N)(=O)=O)ccc12	2.6 µM
CN/C(S)=N/N=C/c1cc2c(c(O)c1C(=O)O)-c1c(O)c3c(c(OC)c1CC2)C(=O)c1c(cc(O)c(C)c1O)C3=O	29 µM
COc1ccc(N/C(S)=N/N=C/c2cc3c(c(O)c2C(=O)O)-c2c(O)c4c(c(OC)c2CC3)C(=O)c2c(cc(O)c(C)c2O)C4=O)cc1	23 µM
CCC(CC)/N=C(\S)N/N=C/c1cc2c(c(O)c1C(=O)O)-c1c(O)c3c(c(OC)c1CC2)C(=O)c1c(cc(O)c(C)c1O)C3=O	18 µM
CCCCCCCCC/N=C(\S)N/N=C/c1cc2c(c(O)c1C(=O)O)-c1c(O)c3c(c(OC)c1CC2)C(=O)c1c(cc(O)c(C)c1O)C3=O	19 µM
CCC/N=C(\S)N/N=C/c1cc2c(c(O)c1C(=O)O)-c1c(O)c3c(c(OC)c1CC2)C(=O)c1c(cc(O)c(C)c1O)C3=O	20 µM
COc1c2c(c(O)c3c1C(=O)c1c(cc(O)c(C)c1O)C3=O)-c1c(cc(/C=N/N=C(\S)NC3CCCCCCC3)c(C(=O)O)c1O)CC2	15 µM
COc1c2c(c(O)c3c1C(=O)c1c(cc(O)c(C)c1O)C3=O)-c1c(cc(/C=N/NC(=S)NC3CCCCC3)c(C(=O)O)c1O)CC2 [MHL CYCLOHEXYLTHIOSEMICARBAZONE]	0.46 µM
COc1c2c(c(O)c3c1C(=O)c1c(cc(O)c(C)c1O)C3=O)-c1c(cc(/C=N/N=C(\S)NC3CCCC3)c(C(=O)O)c1O)CC2	3.2 µM
COc1c2c(c(O)c3c1C(=O)c1c(cc(O)c(C)c1O)C3=O)-c1c(cc(/C=N/N=C(\S)NC3CC3)c(C(=O)O)c1O)CC2	22 µM
